What was measured:
MKN-45 cells = assay: Antitumor test, MKN-45 transplanted nude mouse; type: in vivo, nude mouse (BALB/c nu/nu); conditions: MKN-45, dose 2 mg/kg, orally, 14 consecutive days
Method: (§1) Cancer cells were cultured in a culture medium containing 10% bovine fetal serum in an incubator at 37° C., 5% CO2. MKN-45 cells were treated with trypsin/EDTA and isolated. MKN-45 and MV-4-11 cells were washed with HBSS (HANK's Balanced Saline Solution). When MKN-45 cells were transplanted, they were adjusted with HBSS to a cell density of 1.2×10^8 cells/mL, and transplanted by subcutaneous injection of 0.05 mL of a mixed suspension (3×10^6 cells) of the cell suspension and the same amount of Matrigel into the abdomen of 6 or 7-week-old female nude mouse (BALB/c nu/nu, CLEA Japan, Inc.). When MV-4-11 cells were transplanted, they were adjusted with HESS to a cell density of 1.2×10^8 cells/mL, and transplanted by subcutaneous injection of 0.05 mL of a mixed suspension (3×10^6 cells) of the cell suspension and the same amount of Matrigel into the abdomen of 7-week-old female nude mouse (BALB/c nu/nu, CLEA Japan, Inc.). When the average tumor volume reached 100-250 mm^3, the mice were grouped, and various doses of test substance were orally administered for 14 consecutive days starting from the next day. The length of the major axis and the length of the minor axis of the tumor were measured over time and the tumor volume was calculated by tumor volume=major axis length×minor axis length×minor axis length×0.5. The ratio of an increase in the average tumor volume of the control group to an increase in the average tumor volume of the drug administration group was taken as the tumor growth rate (%) of the drug administration group. Table 5 showned MKN-45 tumor growth rate (%) and table 6 showned MV-4-11 tumor growth rate (%).

MV-4-11 cells = assay: Antitumor test, MV-4-11 transplanted nude mouse; type: in vivo, nude mouse (BALB/c nu/nu); conditions: MV-4-11, dose 2 mg/kg, orally, 14 consecutive days
Method: as §1

[1] = tested on: Human blood cell cancer cell line MV-4-11; assay: Human blood cell cancer cell line MV-4-11 growth inhibitory test; type: cell-based; conditions: MV4-11, 72 h, culture for 3 days

- IC50 [1]: ≤ 1000 nM
Compound: Cc1ccc(C(=O)Nc2ccc(Oc3ccc4nc(NC(=O)C5CC5)cn4c3)c(F)c2)c(=O)n1-c1ccc(F)cc1.Cl [Example 32, N-[4-({2-[(cyclopropylcarbonyl)amino]imidazo[1,2-a]pyridin-6-yl}oxy)-3-fluorophenyl]-1-(4-fluorophenyl)-6-methyl-2-oxo-1,2-dihydropyridine-3-carboxamide hydrochloride]
- tumor growth rate (%) (MKN-45 cells): 14%
- tumor growth rate (%) (MV-4-11 cells): <0%
- inhibition at 1 µM ([1]; 1 μM test substance, read-out: inhibitory rate (%) at 1 μM): ≥ 90%

From US8445509B2, “Fused heterocyclic derivatives and use thereof” (Takeda Pharmaceutical Company Limited, priority 2008, dated 2013)
